Test results: US20170304286A1 (LAUNX BIOMEDICAL CO., LTD., priority 2014, published 2017)
Where two headings read alike, the source gives them in different places.

Key:
Format in all cases: cell-based
[1] = system: MCF7 (Mammary Gland, Adenocarcinoma); experiment: WST-1 cell viability, breast cancer cell line MCF7; conditions: Homo sapiens
Method: (§1) The cell numbers were counted and reseed as 2×10^6 in culture plate/flask. Then, the culture medium were added to a volume of 10 ml, and the cells were cultured for 2-3 days. Then, the cells were suspended for loading into 96-well plates. The number of cells was 3000 and the volume of the culture medium was 100 μl each well.
(§2) Removing the original culture medium from 96-well plate. Then add 100 μl of commercially drug at a concentration of 10 μM per well. After 72 hours, add the diluted WST-1 reagent to the well with 100 μl/well, and the diluted WST-1 reagent was acquired from the dilution of 9:1 medium and WST-1 stock reagent. Finally, the total volume of each well was 200 μl/well. Culture the 96-well plate at 37° C. for 30 to 90 minutes. Detecting and calculate the survival rate of each cancer cells with an ELISA reader at OD450 nm.

[2] = system: HeLa (CervixAdenocarcinoma); experiment: WST-1 cell viability, cervical cancer cell line HeLa; conditions: Homo sapiens, 72 h
Method: as §1, §2

U2OS = experiment: WST-1 cell viability, osteosarcoma cell line U2OS; conditions: Homo sapiens, 72 h
Method: as §1, §2

hepatic cancer cells = experiment: Summary of cell viability, hepatic cancer; conditions: 72 h, read-out: Inhibitory effect
Method: as §2

pancreatic cancer cells = experiment: Summary of cell viability, pancreatic cancer; conditions: 72 h, read-out: Inhibitory effect
Method: as §2

[3] = system: HepG2 (hepatocellular carcinoma); experiment: WST-1 cell viability, hepatic cancer cell line HepG2; conditions: Homo sapiens
Method: as §1, §2

gastric cancer cells = experiment: Summary of cell viability, gastric cancer; conditions: gastriccancer, 72 h, read-out: Inhibitory effect
Method: as §2

various cancer cells = experiment: Inhibitory effect on various cancer cells (cell viability); conditions: Table 18, FIG. 1
Text: Subculture the different types of cancer cells. The cancer cells includes lung cancer, gastric cancer, hepatic cancer, colon cancer, skin cancer, cervical cancer, prostate cancer, bladder cancer, breast cancer, leukemia, pancreatic cancer, ovarian cancer, tongue cancer, osteosarcoma, and renal cancer. The normal cells used in the control group included kidney cells (HEK293), canine fibroblast cell line HFW, and human bronchial epithelial cell line BEAS-2B. Removing the original culture medium from 96-well plate. […] After 72 hours, add the diluted WST-1 reagent to the well with 100 μl/well, and the diluted WST-1 reagent was acquired from the dilution of 9:1 medium and WST-1 stock reagent. […] Culture the 96-well plate at 37° C. for 30 to 90 minutes. Detecting and calculate the survival rate of each cancer cells with an ELISA reader at OD450 nm. […] (FIG. 1)

TSGH = experiment: WST-1 cell viability, bladder cancer cell line TSGH; conditions: 72 h
Method: as §1, §2

cervical cancer cells = experiment: Summary of cell viability, cervical cancer; conditions: 72 h, read-out: Inhibitory effect
Method: as §2

BxPC-3 = experiment: WST-1 cell viability, pancreatic cancer cell line BxPC-3; conditions: Homo sapiens
Method: as §1, §2

[4] = system: C-33A (Cervical carcinoma); experiment: WST-1 cell viability, cervical cancer cell line C-33A; conditions: Homo sapiens, 72 h
Method: as §1, §2

TOV-21G = experiment: WST-1 cell viability, ovarian cancer cell line TOV-21G; conditions: Homo sapiens, TOV21G, 72 h
Method: as §1, §2

PC-3 = experiment: WST-1 cell viability, prostate cancer cell line PC-3; conditions: Homo sapiens
Method: as §1, §2

skin cancer cells = experiment: Summary of cell viability, skin cancer; conditions: 72 h, read-out: Inhibitory effect
Method: as §2

[5] = WST-1 cell viability, normal pulmonary epithelial cell line BEAS-2B; conditions: human, BEAS-2B normal bronchial (pulmonary) epithelial cells
[6] = system: MKN-45 (Gastric Adenocarcinoma); experiment: WST-1 cell viability, gastric cancer cell line MKN-45; conditions: Homo sapiens
Method: as §1, §2

HCT116-wt = experiment: WST-1 cell viability, colorectal cancer cell line HCT116-wt; conditions: 72 h
Method: as §1, §2

[7] = average of 4 tests, read-out: survival rate (inhibition effect), Average
[8] = run 0524-10 min, read-out: survival rate (inhibition effect)
[9] = run 0526-10 min, read-out: survival rate (inhibition effect)
[10] = run 0529-10 min, read-out: survival rate (inhibition effect)
[11] = run 0531-10 min, read-out: survival rate (inhibition effect)

Molecule `Fc1ccc([C@@H]2CCNC[C@H]2COc2ccc3c(c2)OCO3)cc1` [Paroxetine] has a viability at 10 µM ([1]; MCF7, 72 h, MCF7, average of 4 tests, read-out: survival rate (inhibition effect), Average) of 51.2%, a viability at 10 µM ([1]; MCF7, MCF7, 72 h, run 0612-10 min, read-out: survival rate (inhibition effect)) of 47.7% and a viability at 10 µM ([1]; MCF7, MCF7, 72 h, run 0614-10 min, read-out: survival rate (inhibition effect)) of 50%. For the same molecule, the viability at 10 µM ([1]; MCF7, MCF7, 72 h, run 0616-10 min, read-out: survival rate (inhibition effect)) was 55.4%, the viability at 10 µM ([1]; MCF7, MCF7, 72 h, run 0619-10 min, read-out: survival rate (inhibition effect)) was 51.6% and the viability at 10 µM [2, 7] was 63.8%. It also gave a viability at 10 µM [2, 8] of 52.6%, a viability at 10 µM [2, 9] of 78.3% and a viability at 10 µM [2, 10] of 51%. For the same molecule, the viability at 10 µM [2, 11] was 73.4%, the viability at 10 µM (U2OS; [7]) was 33.2% and the viability at 10 µM (U2OS; run 6-26-10 min, read-out: survival rate (inhibition effect)) was 40.6%. The viability at 10 µM (U2OS; run 6-28-10 min, read-out: survival rate (inhibition effect)) was 30.8%, the viability at 10 µM (U2OS; run 6-30-10 min, read-out: survival rate (inhibition effect)) was 30.3% and the viability at 10 µM (U2OS; run 7-3-10 min, read-out: survival rate (inhibition effect)) was 31.1%. It also gave a viability at 10 µM (U2OS; summary, osteosarcoma, read-out: Inhibitory effect) of 33.2%, a viability at 10 µM (hepatic cancer cells) of 60.1% and a viability at 10 µM (pancreatic cancer cells) of 77.4%. The viability at 10 µM ([3]; HepG2, 72 h, HepG2, average of 4 tests, read-out: survival rate (inhibition effect), Average) was 54.1%, the viability at 10 µM ([3]; HepG2, HepG2, 72 h, run 0524-20 min, read-out: survival rate (inhibition effect)) was 66.4% and the viability at 10 µM ([3]; HepG2, HepG2, 72 h, run 0526-20 min, read-out: survival rate (inhibition effect)) was 58.3%. It also gave a viability at 10 µM ([3]; HepG2, HepG2, 72 h, run 0529-20 min, read-out: survival rate (inhibition effect)) of 50.1%, a viability at 10 µM ([3]; HepG2, HepG2, 72 h, run 0531-20 min, read-out: survival rate (inhibition effect)) of 41.7% and a viability at 10 µM (gastric cancer cells) of 26.3%. The “inhibitory effect on several cancer cell lines” value (various cancer cells) was “significant inhibitory effect”, the viability at 10 µM (TSGH; [7]) was 38.4% and the viability at 10 µM (TSGH; run 0510-10 min, read-out: survival rate (inhibition effect)) was 37.1%. The viability at 10 µM (TSGH; run 0512-10 min, read-out: survival rate (inhibition effect)) was 37.4%, the viability at 10 µM (TSGH; run 0515-10 min, read-out: survival rate (inhibition effect)) was 36.8% and the viability at 10 µM (TSGH; run 0517-10 min, read-out: survival rate (inhibition effect)) was 42.2%. For the same molecule, the viability at 10 µM (cervical cancer cells) was 63.8%, the viability at 10 µM (BxPC-3; BXPC-3, 72 h, BxPC-3, average of 4 tests, read-out: survival rate (inhibition effect), Average) was 77.7% and the viability at 10 µM (BxPC-3; BXPC-3, BxPC-3, 72 h, run 3-4-30 min, read-out: survival rate (inhibition effect)) was 87%. The viability at 10 µM (BxPC-3; BXPC-3, BxPC-3, 72 h, run 3-7-3-30 min, read-out: survival rate (inhibition effect)) was 59.7%, the viability at 10 µM (BxPC-3; BXPC-3, BxPC-3, 72 h, run 3-7-4-30 min, read-out: survival rate (inhibition effect)) was 93.7% and the viability at 10 µM [4, 7] was 33.2%. For the same molecule, the viability at 10 µM [4, 8] was 33.2%, the viability at 10 µM [4, 9] was 32.1% and the viability at 10 µM [4, 10] was 31.7%. The viability at 10 µM [4, 11] was 35.8%, the viability at 10 µM (TOV-21G; [7]) was 87.1% and the viability at 10 µM (TOV-21G; run 4-30 min, read-out: survival rate (inhibition effect)) was 86.1%. The viability at 10 µM (TOV-21G; run 7-3-30 min, read-out: survival rate (inhibition effect)) was 93.5%, the viability at 10 µM (TOV-21G; run 7-4-30 min, read-out: survival rate (inhibition effect)) was 79.7% and the viability at 10 µM (TOV-21G; run 7-7-30 min, read-out: survival rate (inhibition effect)) was 89.2%. The viability at 10 µM (PC-3; PC-3, 72 h, PC-3, average of 4 tests, read-out: survival rate (inhibition effect), Average) was 44.1%, the viability at 10 µM (PC-3; PC-3, PC-3, 72 h, run PC-3-0524-10 min, read-out: survival rate (inhibition effect)) was 33.5% and the viability at 10 µM (PC-3; PC-3, PC-3, 72 h, run PC-3-0526-10 min, read-out: survival rate (inhibition effect)) was 61.6%. It also gave a viability at 10 µM (PC-3; PC-3, PC-3, 72 h, run PC-3-0529-10 min, read-out: survival rate (inhibition effect)) of 39.3%, a viability at 10 µM (PC-3; PC-3, PC-3, 72 h, run PC-3-0531-10 min, read-out: survival rate (inhibition effect)) of 41.8% and a viability at 10 µM (skin cancer cells) of 51%. The viability at 72 h, 10 µM ([5]; BEAS-2B, average of 4 tests, read-out: survival rate (inhibition effect), Average) was 98.6%, the viability at 72 h, 10 µM ([5]; BEAS-2B, run 0512-10 min, read-out: survival rate (inhibition effect)) was 103% and the viability at 72 h, 10 µM ([5]; BEAS-2B, run 0515-10 min, read-out: survival rate (inhibition effect)) was 96.4%. For the same molecule, the viability at 72 h, 10 µM ([5]; BEAS-2B, run 0517-10 min, read-out: survival rate (inhibition effect)) was 94.6%, the viability at 72 h, 10 µM ([5]; summary, pulmonary epithelial cell line, read-out: Inhibitory effect) was 98.6% and the viability at 10 µM ([6]; MKN-45, 72 h, MKN-45, average of 4 tests, read-out: survival rate (inhibition effect), Average) was 40.5%. For the same molecule, the viability at 10 µM ([6]; MKN-45, MKN-45, 72 h, run 0510-10 min, read-out: survival rate (inhibition effect)) was 36.2%, the viability at 10 µM ([6]; MKN-45, MKN-45, 72 h, run 0512-10 min, read-out: survival rate (inhibition effect)) was 52% and the viability at 10 µM ([6]; MKN-45, MKN-45, 72 h, run 0515-10 min, read-out: survival rate (inhibition effect)) was 37.8%. The viability at 10 µM ([6]; MKN-45, MKN-45, 72 h, run 0517-10 min, read-out: survival rate (inhibition effect)) was 36%, the viability at 10 µM (HCT116-wt; [7]) was 28.4% and the viability at 10 µM (HCT116-wt; run 0602-30 min, read-out: survival rate (inhibition effect)) was 23.8%. It also gave a viability at 10 µM (HCT116-wt; run 0605-10 min, read-out: survival rate (inhibition effect)) of 30.6%, a viability at 10 µM (HCT116-wt; run 0607-10 min, read-out: survival rate (inhibition effect)) of 29.7% and a viability at 10 µM (HCT116-wt; run 0609-10 min, read-out: survival rate (inhibition effect)) of 29.5%.
